{"source": "patent US7919525B2", "about": "“Radiation protection by gamma-tocotrienol” (priority 2003, dated 2011)", "type_in_all_cases": "in vivo", "key": {"CD2F1 male mice [1]": {"tested_on": "CD2F1 male mice", "assay": "30-day survival of mice given succinate ester orally before Cobalt-60 irradiation", "conditions": "9.5 Gy Cobalt-60, 0.6 Gy/min; oral 0.1 ml of 200 unit/ml 20-24 hours before irradiation", "procedure": "(§1) After radiation, mice were returned to their original cages with free access to food and water. Mice were weighed and monitored for survivors everyday for 30 days. Percentages of survivors at the end of 30 days are used as a measure of the efficacy of γ-tocotrienol in protecting from radiation damage.\n0.5 g TS (Sigma, 1210 units/g) was sonicated with 2.85 ml PEG-400 (polyethylene glycol-400) and 0.15 ml of vital-E-placebo, a solubilizing agent (Schering-Plough). The final concentration of TS in the prepared solution is 200 units/ml. At a dose of 800 unit/kg, 1 ml of the prepared solution as described above is sufficient for 8 mice. Vehicle for injection into control mice was prepared exactly as for TS except that 0.5 ml of olive oil was used instead of TS.\nEach animal was orally administered 0.1 ml of TS solution (200 unit/ml) or vehicle by using feeding needles with a blobbed head. All administrations were done 20-24 hours before irradiation.\nAnimals were then placed in well-ventilated Lucite boxes (eight animals in a compartmentalized box) and irradiated in a Cobalt-60 facility at a radiation dose rate of 0.6 Gy/min for total radiation doses of 9, 9.5, and 10 Gy. The radiation doses 9.5 and 10 Gy used are lethal doses. […]\nThe efficacy of α-tocopherol succinate in protecting from radiation damage is monitored as described in Example 4. […]"}, "CD2F1 male mice [2]": {"tested_on": "CD2F1 male mice", "assay": "30-day survival of mice injected s.c. before lethal Cobalt-60 irradiation", "conditions": "for protective efficacy at higher radiation dose (in words): 11 Gy; for survival at 30 days after irradiation: s.c. injection 20-24 hours before irradiation", "procedure": "CD2F1 male mice, 6-8 weeks old (approximately 25 g), procured from Jackson Labs were used throughout this study and were kept in rooms maintained at 21±0.5° C. Animals on arrival were maintained in quarantine for 10 days during which time serological testing was done for contamination by pathogens. All animals were provided with pellet diet and water ad lib.\nA preparation of γ-tocotrienol in a final volume of 1 ml was made by mixing 0.11 ml of γ-tocotrienol with 0.85 ml PEG-400 (polyethylene glycol-400) and 0.05 ml of vital-E-placebo, a solubilizing agent (Schering-Plough). 1 ml of the preparation is sufficient for 8 mice. Final concentration of γ-tocotrienol is 100 mg/ml. Vehicle for injection into control animals was prepared exactly as for γ-tocotrienol except that 0.11 ml of olive oil was used instead of γ-tocotrienol.\n(§2) Each animal was injected subcutaneously (at the nape of the neck) with 0.1 ml of either γ-tocotrienol or vehicle preparation. Injections were done 20-24 hours before irradiation.\n(§3) Animals were placed in well-ventilated Lucite boxes (8 animals in a compartmentalized box) and irradiated in a Cobalt-60 facility at a radiation dose rate of 0.6 Gy/min for a total radiation dose of 10.5 and 11 Gy. The radiation dose used is a super lethal dose. The LD50/30 radiation dose for this strain of mice is 8.9 Gy with the vehicle alone. The radiation dose and dose rate were the same that had been used for α-tocopherol studies.\nas §1"}, "CD2F1 male mice [3]": {"tested_on": "CD2F1 male mice", "assay": "Body weight of mice after irradiation at 10.5 Gy", "conditions": "0.6 Gy per minute, s.c.", "procedure": "as §2, §3, §1\nAmong the different treatment groups, the untreated mice (Untr, Irrad) and the mice treated with vehicle (Vehicle) started to loose weight again from around day 9 and died by day 15."}, "[4]": {"conditions": "experiment 1, 10.5 Gy Cobalt-60, 0.6 Gy/min, 8 mice"}, "[5]": {"conditions": "experiment 2, 10.5 Gy Cobalt-60, 0.6 Gy/min, 8 mice"}}, "data": [{"molecule": "Cc1c(C)c2c(c(C)c1OC(=O)CCC(=O)O)CC[C@@](C)(CCC[C@H](C)CCC[C@H](C)CCCC(C)C)O2", "note": "[α-tocopherol succinate]", "values": [{"measurement": "survival at 30 days after irradiation", "setting": "CD2F1 male mice [1]", "value": 60, "unit": "%"}]}, {"molecule": "Cc1c(C)c2c(c(C)c1O)CC[C@@](C)(CCC[C@H](C)CCC[C@H](C)CCCC(C)C)O2", "note": "[α-tocopherol, reference compound]", "values": [{"measurement": "protection less than that of γ-tocotrienol", "setting": "CD2F1 male mice [2]; 10.5 Gy", "value": 25, "unit": "%"}, {"measurement": "protective efficacy at higher radiation dose (in words)", "setting": "CD2F1 male mice [2]", "value": "not effective"}, {"measurement": "survival at 30 days after irradiation", "setting": "CD2F1 male mice [2]; 11 Gy Cobalt-60, 0.6 Gy/min", "value": "no survivors"}, {"measurement": "survival at 30 days after irradiation", "setting": "CD2F1 male mice [2]; [4]", "value": 75, "unit": "%"}, {"measurement": "survival at 30 days after irradiation", "setting": "CD2F1 male mice [2]; [5]", "value": 50, "unit": "%"}]}, {"molecule": "γ-tocotrienol", "values": [{"measurement": "body weight course after irradiation (in words)", "setting": "CD2F1 male mice [3]", "value": "continued to gain weight and did not die from the irradiation"}, {"measurement": "protection higher than with α-tocopherol", "setting": "CD2F1 male mice [2]; 10.5 Gy, both experiments", "value": 25, "unit": "%"}, {"measurement": "survival after irradiation, both experiments together", "setting": "CD2F1 male mice [2]; 10.5 Gy, given before irradiation", "value": "75%-100"}, {"measurement": "protective efficacy at higher radiation dose (in words)", "setting": "CD2F1 male mice [2]", "value": "better radioprotectant than α-tocopherol"}, {"measurement": "survival at 30 days after irradiation", "setting": "CD2F1 male mice [2]; 11 Gy Cobalt-60, 0.6 Gy/min", "value": 40, "unit": "%"}, {"measurement": "survival at 30 days after irradiation", "setting": "CD2F1 male mice [2]; [4]", "value": 100, "unit": "%"}, {"measurement": "survival at 30 days after irradiation", "setting": "CD2F1 male mice [2]; [5]", "value": 75, "unit": "%"}]}]}
